Assay results published in patent US9615577B2, “Herbicidally active cyclic dione compounds, or derivatives therefor, substituted by a phenyl which has an alkynyl-containing substituent” (Syngenta Limited, priority 2012, dated 2017).

What was measured:
Format in all cases: in vivo
[1] = tested on: Abutilon theophasti Medik. (ABUTH); experiment: Test 1A glasshouse assay for herbicidal activity, post-emergence; conditions: 312 h, evaluated after 13 days, read-out: percentage phytotoxicity ABUTH
Summary of the method: (§1)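 Test plants grew from seed in standard soil under controlled glasshouse conditions (24/16 °C, 14 h light, 65% humidity) and received an aqueous acetone (50:50) spray with 0.5% Tween 20, either one day after sowing or after eight days. Damage was rated visually as percent phytotoxicity 13 days later.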

[2] = tested on: SORVU (Sorghum bicolor (L.) Moench ssp. Bicolor, or Sorghum vulgare Pers.); experiment: Test 1B glasshouse assay for herbicidal activity, post-emergence; conditions: 360 h; for pest or weed control at 30 g/ha: 30 g/ha application rate; for pest or weed control at 60 g/ha: 60 g/ha application rate; for pest or weed control at 125 g/ha: 125 g/ha application rate
Summary of the method: (§2)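 Percentage phytotoxicity (100% = total damage, 0% = none) was scored visually 15 days (post-emergence) or 20 days (pre-emergence) after spraying. Plants had been sprayed 1 day or about 12 days after sowing with compound formulated as IF50 and diluted in 0.2% v/v X-77, then grown at 24/18° C. day/night.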

[3] = tested on: Brachiaria plantaginea (BRAPL); experiment: as above; conditions: Urochloa plantaginea; for pest or weed control at 30 g/ha: 30 g/ha application rate; for pest or weed control at 60 g/ha: 60 g/ha application rate; for pest or weed control at 125 g/ha: 125 g/ha application rate
Summary of the method: as §2

[4] = tested on: Alopecurus myosuroides (ALOMY); experiment: Test 1A glasshouse assay for herbicidal activity, pre-emergence; conditions: 312 h, 250 g/ha, evaluated after 13 days, read-out: percentage phytotoxicity ALOMY
Summary of the method: as §1

[5] = tested on: Echinochloa crus-galli (ECHCG); experiment: as above; conditions: 312 h, 250 g/ha, evaluated after 13 days, read-out: percentage phytotoxicity ECHCG
Summary of the method: as §1

[6] = tested on: Amaranthus retroflexus (AMARE); experiment: as above; conditions: 312 h, 250 g/ha, evaluated after 13 days, read-out: percentage phytotoxicity AMARE
Summary of the method: as §1

Setaria faberi (SETFA) [7] = experiment: as above; conditions: 312 h, 250 g/ha, evaluated after 13 days, read-out: percentage phytotoxicity SETFA
Summary of the method: as §1

[8] = tested on: Echinochloa crus-galli (ECHCG); experiment: Test 1B glasshouse assay for herbicidal activity, post-emergence; conditions: Echinochloa crus-galli; for pest or weed control at 30 g/ha: 30 g/ha application rate; for pest or weed control at 60 g/ha: 60 g/ha application rate; for pest or weed control at 125 g/ha: 125 g/ha application rate
Protocol: (§3) Seeds of a variety of monocotyledonous and dicotyledonous test plants are sown in standard soil in pots. The plants are cultivated for one day (for pre-emergence) or for about 12 days (range=10-13 days) (for post-emergence) under controlled conditions in a glasshouse (warm climate species at 24/18° C., cool climate species at 20/16° C., both at day/night; 16 hours light; 65% humidity).
(§4) An “instant formulation”, known as the “IF50”, containing 50 g/liter (i.e. 5% w/v) of the “technical” (i.e. unformulated) active ingredient is prepared by dissolving the active ingredient in a mixture of organic solvents and emulsifier, details of which are provided in the Table below. This IF50 is then mixed with a small, variable amount of acetone to aid dissolution, before addition of a 0.2% v/v aqueous solution of the adjuvant X-77 (which is a mixture of alkyl aryl polyoxyethylene glycols and free fatty acids in isopropanol, CAS Registry number 11097-66-8), as the aqueous diluent, to form an aqueous spray solution which contains a predetermined concentration of the active ingredient (which varies depending on the application rate of the active ingredient to the plants) and 0.2% v/v of the adjuvant X-77. This aqueous spray solution is then sprayed onto the plants, after one day's cultivation (for pre-emergence) or after about 12 days' cultivation (for post-emergence).
(§5) The test plants are then grown on, in a glasshouse (greenhouse) under controlled conditions (at either 24/18° C. or 20/16° C. (day/night) as mentioned above; 16 hours light; 65% humidity) and are watered twice daily. Either 15 days after application of the herbicide (15 DAA) (for post-emergence), or 20 days after application of the herbicide (20 DAA) (for pre-emergence), the test plants are evaluated visually, and an assessed percentage phytotoxicity score is given for each herbicidal application on each plant species (where 100%=total damage to plant; 0%=no damage to plant).
(§6) Warm climate (“warm season”) grassy monocotyledonous weeds: Setaria faberi (SETFA), SORVU (Sorghum bicolor (L.) Moench ssp. Bicolor, or Sorghum vulgare Pers.), Digitaria sanguinalis (DIGSA), Echinochloa crus-galli (ECHCG), and Brachiaria plantaginea (BRAPL).
Note: The herbicidal activity data (e.g. post-emergence) shown above in Biological Example 1B for Comparator compounds X-9 and X-10 is thought likely to have been measured some years ago, probably using a variant of the above-described test method. Also, for the post-emergence activity of X-9 and X-10 it is not currently known exactly how many days after application of the herbicide the phytotoxicity on the plants was measured.

[9] = tested on: Digitaria sanguinalis (DIGSA); experiment: Test 1B glasshouse assay for herbicidal activity, pre-emergence; conditions: 480 h, 20 DAA, read-out: percentage phytotoxicity DIGSA
Protocol: as §3, §4, §5, §6

[10] = tested on: SORVU (Sorghum bicolor (L.) Moench ssp. Bicolor, or Sorghum vulgare Pers.); experiment: as above; conditions: 480 h, 20 DAA, read-out: percentage phytotoxicity SORVU
Protocol: as §3, §4, §5, §6

[11] = tested on: Echinochloa crus-galli (ECHCG); experiment: as above; conditions: 480 h, 20 DAA, read-out: percentage phytotoxicity ECHCG
Protocol: as §3, §4, §5, §6

[12] = tested on: Brachiaria plantaginea (BRAPL); experiment: as above; conditions: Urochloa plantaginea, 480 h, 20 DAA, read-out: percentage phytotoxicity BRAPL
Protocol: as §3, §4, §5, §6

Setaria faberi (SETFA) [13] = experiment: as above; conditions: 480 h, 20 DAA, read-out: percentage phytotoxicity SETFA
Protocol: as §3, §4, §5, §6

[14] = tested on: Alopecurus myosuroides (ALOMY); experiment: Test 1B glasshouse assay for herbicidal activity, post-emergence; conditions: 360 h; for pest or weed control at 30 g/ha: 30 g/ha application rate; for pest or weed control at 60 g/ha: 60 g/ha application rate; for pest or weed control at 125 g/ha: 125 g/ha application rate
Protocol: as §3, §4, §5
(§7) Cool climate (“cool season”) grassy monocotyledonous weeds: Alopecurus myosuroides (ALOMY), Avena fatua (AVEFA), Lolium perenne (LOLPE).

Avena fatua (AVEFA) = experiment: as above; conditions: 360 h; for pest or weed control at 30 g/ha: 30 g/ha application rate; for pest or weed control at 60 g/ha: 60 g/ha application rate; for pest or weed control at 125 g/ha: 125 g/ha application rate
Protocol: as §3, §4, §5, §7

Lolium perenne (LOLPE) = experiment: as above; conditions: 360 h; for pest or weed control at 30 g/ha: 30 g/ha application rate; for pest or weed control at 60 g/ha: 60 g/ha application rate; for pest or weed control at 125 g/ha: 125 g/ha application rate
Protocol: as §3, §4, §5, §7

| SMILES | pest or weed control at 250 g/ha [1] | pest or weed control at 30 g/ha [2] | pest or weed control at 125 g/ha [2] | pest or weed control at 30 g/ha [3] | pest or weed control at 125 g/ha [3] | pest or weed control at 250 g/ha [4] | pest or weed control at 250 g/ha [5] | pest or weed control at 250 g/ha [6] | pest or weed control at 250 g/ha (Setaria faberi (SETFA) [7]) | pest or weed control at 30 g/ha [8] | pest or weed control at 125 g/ha [8] | pest or weed control at 30 g/ha [14] | pest or weed control at 125 g/ha [14] | pest or weed control at 30 g/ha (Avena fatua (AVEFA)) | pest or weed control at 125 g/ha (Avena fatua (AVEFA)) | pest or weed control at 30 g/ha (Lolium perenne (LOLPE)) | pest or weed control at 125 g/ha (Lolium perenne (LOLPE)) | pest or weed control at 125 g/ha [9] | pest or weed control at 125 g/ha [10] | pest or weed control at 125 g/ha [11] | also measured |
| --- | --- | --- | --- | --- | --- | --- | --- | --- | --- | --- | --- | --- | --- | --- | --- | --- | --- | --- | --- | --- | --- |
| CC#Cc1cc(C)c(C2C(=O)C3CCC(C3)C2=O)c(C)c1 (stereo not drawn) [Compound A-5] | 60% | 70% | 100% | 90% | 100% | 100% | 100% | 0% | 90% | 100% | 100% | 70% | 80% | 30% | 80% | 30% | 80% |  |  |  | pest or weed control at 30 g/ha [1]: 0%; pest or weed control at 60 g/ha [2]: 80%; pest or weed control at 500 g/ha ([2]; 500 g/ha application rate): 100%; pest or weed control at 60 g/ha [3]: 100%; pest or weed control at 500 g/ha ([3]; 500 g/ha application rate): 100%; pest or weed control at 60 g/ha [8]: 100%; pest or weed control at 500 g/ha ([8]; 500 g/ha application rate): 100%; pest or weed control at 500 g/ha ([9]; 500 g/ha): 100%; pest or weed control at 500 g/ha ([10]; 500 g/ha): 90%; pest or weed control at 500 g/ha ([11]; 500 g/ha): 100%; pest or weed control at 500 g/ha ([12]; 500 g/ha): 100%; pest or weed control at 500 g/ha (Setaria faberi (SETFA) [13]; 500 g/ha): 90%; pest or weed control at 60 g/ha [14]: 80%; pest or weed control at 500 g/ha ([14]; 500 g/ha application rate): 90%; pest or weed control at 60 g/ha (Avena fatua (AVEFA)): 30%; pest or weed control at 500 g/ha (Avena fatua (AVEFA); 500 g/ha application rate): 80%; pest or weed control at 60 g/ha (Lolium perenne (LOLPE)): 70%; pest or weed control at 500 g/ha (Lolium perenne (LOLPE); 500 g/ha application rate): 80% |
| Cc1cc(C#CCl)cc(C)c1C1C(=O)C2CCC(C2)C1=O (stereo not drawn) [Compound A-6] |  | 90% |  | 90% |  | 100% | 100% | 30% | 100% | 90% |  | 50% |  | 50% |  | 40% |  | 100% | 80% | 60% | pest or weed control at 60 g/ha [2]: 90%; pest or weed control at 60 g/ha [3]: 100%; pest or weed control at 60 g/ha [8]: 90%; pest or weed control at 125 g/ha [12]: 80%; pest or weed control at 125 g/ha (Setaria faberi (SETFA) [13]): 80%; pest or weed control at 60 g/ha [14]: 50%; pest or weed control at 60 g/ha (Avena fatua (AVEFA)): 60%; pest or weed control at 60 g/ha (Lolium perenne (LOLPE)): 70% |
| CC#Cc1cc(C)c(C2C(=O)C3CCC(C3)C2=O)c(OC)c1 (stereo not drawn) [Compound A-10] | 80% | 100% | 100% | 90% | 100% | 100% | 100% | 0% | 100% | 90% | 100% | 60% | 100% | 20% | 40% | 30% | 80% | 90% | 80% | 90% | pest or weed control at 125 g/ha [12]: 80%; pest or weed control at 125 g/ha (Setaria faberi (SETFA) [13]): 80% |
| CC#Cc1cc(C)c(C2=C(OC(C)=O)CC(c3ccccn3)CC2=O)c(C)c1 (stereo not drawn) [Compound A-15] | 80% | 80% | 100% | 100% | 100% | 100% | 100% | 40% | 100% | 80% | 100% | 70% | 80% | 60% | 80% | 80% | 90% | 100% | 80% | 80% | pest or weed control at 30 g/ha [1]: 20%; pest or weed control at 125 g/ha [12]: 90%; pest or weed control at 125 g/ha (Setaria faberi (SETFA) [13]): 80% |
| CC#Cc1cc(C)c(C2=C(OC(=O)OC)CC(c3ccccn3)CC2=O)c(C)c1 (stereo not drawn) [Compound A-14] | 80% | 80% | 100% | 70% | 100% | 100% | 100% | 70% | 100% | 80% | 100% | 70% | 80% | 20% | 60% | 70% | 80% |  |  |  | pest or weed control at 250 g/ha ([9]; 250 g/ha): 100%; pest or weed control at 250 g/ha ([10]; 250 g/ha): 80%; pest or weed control at 250 g/ha ([11]; 250 g/ha): 80%; pest or weed control at 250 g/ha ([12]; 250 g/ha): 90%; pest or weed control at 250 g/ha (Setaria faberi (SETFA) [13]; 250 g/ha): 90% |
